The test system of the first experiment is HIV-1 (isolated standard virus Z2Z6) in PM1 cells. Nature of the experiment: Anti-HIV evaluation in HIV-1-infected PM1 lymphocytic cell culture, cell viability read by MTT technique. It is filed as cell-based. The note with it: 10^4 cells/well, infected with HIV-1 isolate Z2Z6 at MOI 0.002, MTT cellular viability on 6th day after infection, cut-off 50% of emission of uninfected cells. Here is the method:
The pharmacological evaluation of the derivatives obtained was undertaken using test plates with a PM1 strain cell culture, lymphocytic strain established in culture, expressing the receptors CD4+ and co-receptors C5 and R4 of the HIV-1 and producers of syncytium, incubated with isolated standard virus Z2Z6 purified by passage in cell culture PM-1, having a titer of 3.96×10^2 TCID50/ml. The infection was accomplished by using plates having 96 wells, each containing 10^4 cells/well, infected with a MOI (Multiplicity Of Infection) of 0.002. The compounds being evaluated were initially diluted in dimethylsulphoxide (DMSO) to a final concentration of 10 mM and subsequently diluted in base medium RPMI 1640 to 20 μM.
Nine wells of the cells infected initially with the isolated HIV Z6 were exposed to decreasing concentrations of the compounds at 20 μM by a factor of 2 (base log 2). The culture medium employed was the RPMI 1640, added with 10% bovine foetal serum, antibiotics […]/penicilyne and L-glutamine.
The last and tenth well was kept as a control of the infection, without the presence of the drug blank. Each line of ten wells was produced in triplicate, for posterior statistical analysis. INDINAVIR was used as control, in the same dilutions as the compounds being tested. Cytotoxic analysis was carried out on a fourth set of 10 (ten) wells with cells by applying the compounds of the present invention diluted as described hereinabove. The plates were kept in an oven with 5% CO2, at a temperature of 37° C. and verified daily by optical phase microscopy for the analysis of the occurance of syncytia, which was confirmed on the 4th day after infection.
The results were analysed using a Microsoft Excel matrix, with correction of the blanks, and plotting of the emission frequency graph of the assay (in percentage, using as the 100% standard the emission from the viable cells of the wells without infection) as measurement of cellular viability. The value of 50% of emission of the standard was considered as cut-off point for the IC50 calculation. This value was attained, after plotting on the graph of the logarithmic regression curve equation, the points obtained from the IC curve prior to the formation of the plateau of the curve.
Take `CC(O)C(C)O` (stereo not shown) [Compound 11b]: the IC50 is greater than 100 µM.

Staying with this experiment, now noted: 10^4 cells/well, infected with HIV-1 isolate Z2Z6 at MOI 0.002, MTT cellular viability on 6th day after infection, cut-off 50% of emission of uninfected cells, read-out: IC50.
Turning to `O=C(NCc1ccccc1)[C@@H](O)[C@H](O)C(=O)NCc1ccccc1` [Compound 1a, 1N,4N-dibenzyl-2,3-dihydroxy-(2S,3S)-butanediamide], the IC50 was greater than 100 µM.

For `CCOC(=O)[C@H](C)NC(=O)[C@@H](O)[C@H](O)C(=O)N[C@@H](C)C(=O)OCC` [Compound 3a, 1N,4N-di[1-carbetoxy-(1S)-ethyl]-2,3-dihydroxy-(2S,3S)-butanediamide], the IC50 was greater than 100 µM.

Turning to `O=C(NCc1ccccc1)[C@H](Cc1ccccc1)NC(=O)[C@@H](O)[C@H](O)C(=O)N[C@@H](Cc1ccccc1)C(=O)NCc1ccccc1` [Compound 15, 1N,4N-di[1-carbonylbenzylamine-2-phenyl-(1S)-ethyl]-2,3-dihydroxy-(2S,3S)-butanediamide], the IC50 was greater than 100 µM.

On to “1N,4N-di[1-carbetoxy-2-phenyl-(1S)-ethyl]-2,3-dihydroxy-(2S,3S)-butanediamide [Compound 3e]”, for which the IC50 is greater than 100 µM.

As to `O=C(NCc1ccccc1)[C@H](O)[C@@H](O)C(=O)NCc1ccccc1` [Compound 21, 1N,4N-dibenzyl-2,3-dihydroxy-(2R,3R)-butanediamide], the IC50 is greater than 100 µM.

For `CC(=O)O[C@@H](C(=O)NCc1ccccc1)[C@@H](OC(C)=O)C(=O)NCc1ccccc1` [Compound 20, 1N,4N-dibenzyl-2,3-diacetoxy-(2R,3R)-butanediamide], the IC50 was greater than 100 µM.

As for `CCOC(=O)[C@@H](NC(=O)[C@@H](O)[C@H](O)C(=O)N[C@H](C(=O)OCC)[C@@H](C)CC)[C@@H](C)CC` [Compound 3d, 1N,4N-di[1-carbetoxy-2-methyl-(1S,2S)-butyl]-2,3-dihydroxy-(2S,35)-butanediamide], the IC50 is greater than 100 µM.

Regarding `CC(=O)O[C@H](C(=O)NCc1ccccc1)[C@H](OC(C)=O)C(=O)NCc1ccccc1` [Compound 8a, 1N,4N-dibenzyl-2,3-diacetoxy-(2S,3S)-butanediamide], the IC50 was greater than 100 µM.

Take “1N,4N-di[1-carbetoxy-2-(1H-3-indoyl)-(1S)-ethyl]-2,3-dihydroxy-(2S,3S)-butanediamide [Compound 3g]”: the IC50 is greater than 100 µM.

On to “1N,4N-di[-carbetoxy-2-phenyl-(1S)-ethyl]-2,3-diacetoxy-(2S,3S)-butanediamide [Compound 10e]”, for which the IC50 came to 50 µM.

“1,4-di(benzylamine)-(2S,3S)-butane-2,3-diol [Compound 2a]”: the IC50 is greater than 100 µM.

As to “1N,4N-di[1-carbetoxy-3-methyl-(1S)-butyl]-2,3-dihydroxy-(2S,3S)-butanediamide [Compound 3c]”, the IC50 was found to be 10 µM.

`O[C@H](CNCc1ccccc1)[C@H](O)CNCc1ccccc1` [Compound 22, 1,4-di(benzylamine)-(2R,3R)-butane-2,3-diol]: the IC50 was greater than 100 µM.

For `CCOC(=O)[C@H](Cc1ccccc1)NC(=O)[C@H](O)[C@@H](O)C(=O)N[C@@H](Cc1ccccc1)C(=O)OCC` [Compound 19, 1N,4N-di[1-carbetoxy-2-phenyl-(1S)-ethyl]-2,3-dihydroxy-(2R,3R)-butanediamide], the IC50 was greater than 100 µM.

As for “1N,4N-di[1-carbetoxy-2-methyl-(1S)-propyl]-2,3-dihydroxy-(2S,3S)-butanediamide [Compound 3b]”, the IC50 was greater than 100 µM.

In the case of `CCOC(=O)[C@H](Cc1ccccc1)NC(=O)[C@H](OC(C)=O)[C@@H](OC(C)=O)C(=O)N[C@@H](Cc1ccccc1)C(=O)OCC` [Compound 18, 1N,4N-di[1-carbetoxy-2-phenyl-(1S)-ethyl]-2,3-diacetoxy-(2R,3R)-butanediamide], the IC50 was greater than 100 µM.

“1N,4N-di[2-(4-hydroxyphenyl)-1-carbetoxy-1-(1S)-ethyl]-2,3-dihydroxy-(2S,3S)-butanediamide [Compound 3f]”: the IC50 was found to be 50 µM.

With `NNC(=O)[C@H](Cc1ccccc1)NC(=O)[C@@H](O)[C@H](O)C(=O)N[C@@H](Cc1ccccc1)C(=O)NN` [Compound 14e, 1N,4N-di[1-carbonylhydrazine-2-phenyl-(1S)-ethyl]-2,3-dihydroxy-(2S,3S)-butanediamide], the IC50 is greater than 100 µM.

By IC50 is commonly meant the concentration that gives 50% inhibition.
